Assay [1] deals with Neurotensin receptor type 2 (Homo sapiens, UniProt O95665). The assay can be described thus: Displacement of [leucine-3H]NT (8 to 13 residues) from human NTS2 receptor expressed in HEK293 cell membranes after 60 mins by scintillation counting.
The target in assay [2] is Neurotensin receptor type 1 (Homo sapiens, UniProt P30989). In words: Displacement of [3H]neurotensin from human NTS1 receptor expressed in CHOK1 cell membranes after 60 mins by scintillation counting. More on the design: species or system CHO-K1.
Chain of Neurotensin receptor type 1 (P30989 whole entry): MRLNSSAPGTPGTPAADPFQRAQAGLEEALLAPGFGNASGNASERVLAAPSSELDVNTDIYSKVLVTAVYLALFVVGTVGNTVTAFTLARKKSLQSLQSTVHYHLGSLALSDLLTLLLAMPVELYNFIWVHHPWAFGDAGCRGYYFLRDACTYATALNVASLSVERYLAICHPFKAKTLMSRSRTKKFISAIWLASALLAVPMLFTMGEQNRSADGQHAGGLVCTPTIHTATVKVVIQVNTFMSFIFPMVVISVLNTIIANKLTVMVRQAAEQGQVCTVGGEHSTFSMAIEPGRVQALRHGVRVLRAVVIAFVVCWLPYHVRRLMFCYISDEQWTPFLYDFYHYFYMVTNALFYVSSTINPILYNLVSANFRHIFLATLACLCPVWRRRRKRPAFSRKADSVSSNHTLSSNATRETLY
The nature of assay [3]: Selectivity ratio of IC50 for human NTS1 receptor expressed in CHOK1 cell membranes to IC50 for NTS2 receptor expressed in HEK293 cell membranes.

For orientation: Ki means a measure of affinity in units of concentration, obtained from inhibition or displacement. High values mean weaker binding, low ones tighter binding.

*1 amine or outer side, *2 acyl side, *3 side chain or, on linkers, in order; H or OH if unused. Where a SMILES comes first, the peptide text is derived from it. [ ]: non-standard residue; d: D form. X2 = O=C([C@]1(N[*:1])CCO[C@@H]1c1ccc(Br)cc1)[*:2]; X1 = O=C([C@@]1(N[*:1])CCO[C@H]1c1ccc(O)cc1)[*:2]; X3 = O=C([C@]1(N[*:1])CCO[C@@H]1c1ccc(O)cc1)[*:2]

Chain of Neurotensin receptor type 2 (O95665 whole entry, the tested form may be a part): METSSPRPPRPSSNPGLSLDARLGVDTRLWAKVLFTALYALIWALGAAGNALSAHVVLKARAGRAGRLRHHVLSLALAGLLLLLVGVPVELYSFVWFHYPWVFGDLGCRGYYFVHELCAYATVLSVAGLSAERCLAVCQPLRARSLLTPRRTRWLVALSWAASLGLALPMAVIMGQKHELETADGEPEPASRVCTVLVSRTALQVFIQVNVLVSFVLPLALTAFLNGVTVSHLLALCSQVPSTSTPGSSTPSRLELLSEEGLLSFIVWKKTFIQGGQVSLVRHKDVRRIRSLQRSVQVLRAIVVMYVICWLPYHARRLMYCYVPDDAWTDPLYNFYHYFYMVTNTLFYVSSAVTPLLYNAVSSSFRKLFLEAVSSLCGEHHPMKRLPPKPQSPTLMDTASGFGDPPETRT

`CC[C@H](C)[C@H](NC(=O)C1(NC(=O)[C@@H]2CCCN2C(=O)[C@H](CCCNC(=N)N)NC(=O)[C@@H](N)CCCNC(=N)N)CCOC1c1ccc(Br)cc1)C(=O)N[C@@H](CC(C)C)C(=O)O` (some centres undefined) yielded a Ki in assay [1] of 0.012 µM.

`CC[C@H](C)[C@H](NC(=O)[C@]1(NC(=O)[C@@H]2CCCN2C(=O)[C@H](CCCNC(=N)N)NC(=O)[C@@H](N)CCCNC(=N)N)CCO[C@@H]1c1ccc(Br)cc1)C(=O)N[C@@H](CC(C)C)C(=O)O` registered a Ki in assay [1] of 0.615 µM.

As to `CC[C@H](C)[C@H](NC(=O)[C@@H](Cc1ccc(Br)cc1)NC(=O)[C@@H]1CCCN1C(=O)[C@H](CCCCN)NC(=O)[C@@H](N)CCCCN)C(=O)N[C@@H](CC(C)C)C(=O)O`, the Ki amounted to 0.873 µM in assay [1] and 2.17 µM in assay [2].

As to `CC[C@H](C)[C@H](NC(=O)[C@]1(NC(=O)[C@@H]2CCCN2C(=O)[C@H](CCCNC(=N)N)NC(=O)[C@@H](N)CCCNC(=N)N)CCO[C@@H]1c1ccc(O)cc1)C(=O)N[C@@H](CC(C)C)C(=O)O`, the Ki in assay [1] was determined as 0.012 µM.

Regarding `CC[C@H](C)[C@H](NC(=O)[C@H](Cc1ccc(Br)cc1)NC(=O)[C@@H]1CCCN1C(=O)[C@H](CCCCN)NC(=O)[C@@H](N)CCCCN)C(=O)N[C@@H](CC(C)C)C(=O)O`, the Ki was found to be 0.069 µM in assay [1] and 0.093 µM in assay [2].

`CC[C@H](C)[C@H](NC(=O)[C@]1(NC(=O)[C@@H]2CCCN2C(=O)[C@H](CCCCN)NC(=O)[C@@H](N)CCCCN)CCO[C@@H]1c1ccc(Br)cc1)C(=O)N[C@@H](CC(C)C)C(=O)O` (H-KKP[X2]IL-OH) came in with an inhibition constant (Ki) in assay [2] of 13 µM.

For `CC[C@H](C)[C@H](NC(=O)[C@]1(NC(=O)[C@@H]2CCCN2C(=O)[C@H](CCCNC(=N)N)NC(=O)[C@@H](N)CCCCN)CCO[C@@H]1c1ccc(Br)cc1)C(=O)N[C@@H](CC(C)C)C(=O)O` (H-KRP[X2]IL-OH), the figures for the Ki in assay [1] and in assay [2] were 0.11 µM and 5 µM, respectively.

The compound `CC[C@H](C)[C@H](NC(=O)[C@]1(NC(=O)[C@@H]2CCCN2C(=O)[C@H](CCCCN)NC(=O)[C@@H](N)CCCNC(=N)N)CCO[C@@H]1c1ccc(Br)cc1)C(=O)N[C@@H](CC(C)C)C(=O)O` (H-RKP[X2]IL-OH) gave a Ki in assay [2] of 10 µM.

Take `CC(C)C[C@H](NC(=O)CNC(=O)[C@@]1(NC(=O)[C@@H]2CCCN2C(=O)[C@H](CCCNC(=N)N)NC(=O)[C@@H](N)CCCNC(=N)N)CCO[C@H]1c1ccc(O)cc1)C(=O)O` (H-RRP[X1]GL-OH): the Ki in assay [1] is 0.029 µM; in assay [2] it was 35 µM. Moreover, the “Ratio Ki” value in assay [3] was more than 1000.

With `CC(C)C[C@H](NC(=O)CNC(=O)[C@]1(NC(=O)[C@@H]2CCCN2C(=O)[C@H](CCCNC(=N)N)NC(=O)[C@@H](N)CCCNC(=N)N)CCO[C@@H]1c1ccc(O)cc1)C(=O)O` (H-RRP[X3]GL-OH), the Ki was found to be 0.7 µM in assay [1] and 20 µM in assay [2].

For `CC(C)C[C@H](NC(=O)C1(NC(=O)[C@@H]2CCCN2C(=O)[C@H](CCCCN)NC(=O)[C@@H](N)CCCCN)CCOC1c1ccc(Br)cc1)C(=O)O` (stereo in doubt; 7-1), the results for the Ki in assay [1] and in assay [2] were 27 µM and 67 µM, respectively.

As to `CC(C)C[C@H](NC(=O)C1(NC(=O)[C@@H]2CCCN2C(=O)[C@H](CCCCN)NC(=O)[C@@H](N)CCCCN)CCOC1c1ccc(Br)cc1)C(=O)O` (stereo in doubt; 7-2), the Ki in assay [1] worked out at 2.03 µM; in assay [2], 95.5 µM.

Turning to `CC(C)C[C@H](NC(=O)C1(NC(=O)[C@@H]2CCCN2C(=O)[C@H](CCCNC(=N)N)NC(=O)[C@@H](N)CCCCN)CCOC1c1ccc(Br)cc1)C(=O)O` (stereo in doubt; 8-1), the Ki in assay [1] amounted to 28 µM; in assay [2], 53 µM.

Consider `CC(C)C[C@H](NC(=O)C1(NC(=O)[C@@H]2CCCN2C(=O)[C@H](CCCNC(=N)N)NC(=O)[C@@H](N)CCCCN)CCOC1c1ccc(Br)cc1)C(=O)O` (stereo in doubt; 8-2), for which the Ki came to 11 µM in assay [1] and 92.3 µM in assay [2].

Compound `CC(C)C[C@H](NC(=O)C1(NC(=O)[C@@H]2CCCN2C(=O)[C@H](CCCCN)NC(=O)[C@@H](N)CCCNC(=N)N)CCOC1c1ccc(Br)cc1)C(=O)O` (stereo in doubt; 9-1) gave a Ki in assay [2] of 70.5 µM.

For the compound `CC(C)C[C@H](NC(=O)C1(NC(=O)[C@@H]2CCCN2C(=O)[C@H](CCCCN)NC(=O)[C@@H](N)CCCNC(=N)N)CCOC1c1ccc(Br)cc1)C(=O)O` (stereo in doubt; 9-2), the Ki in assay [2] was more than 100 µM.

For `CC(C)C[C@H](NC(=O)C1(NC(=O)[C@@H]2CCCN2C(=O)[C@H](CCCNC(=N)N)NC(=O)[C@@H](N)CCCNC(=N)N)CCOC1c1ccc(Br)cc1)C(=O)O` (stereo in doubt; 10-1), the figures for the Ki in assay [1] and in assay [2] were 49 µM and 91.5 µM, respectively.

For `CC(C)C[C@H](NC(=O)C1(NC(=O)[C@@H]2CCCN2C(=O)[C@H](CCCNC(=N)N)NC(=O)[C@@H](N)CCCNC(=N)N)CCOC1c1ccc(Br)cc1)C(=O)O` (stereo in doubt; 10-2), the Ki in assay [1] is 1.43 µM; in assay [2], 72.5 µM.

Regarding `CC(C)C[C@H](NC(=O)CNC(=O)C1(NC(=O)[C@@H]2CCCN2C(=O)[C@H](CCCCN)NC(=O)[C@@H](N)CCCCN)CCOC1c1ccc(Br)cc1)C(=O)O` (stereo in doubt; 16-1), the Ki in assay [1] is 0.5 µM; in assay [2] it was more than 50 µM.

For `CC(C)C[C@H](NC(=O)CNC(=O)C1(NC(=O)[C@@H]2CCCN2C(=O)[C@H](CCCCN)NC(=O)[C@@H](N)CCCCN)CCOC1c1ccc(Br)cc1)C(=O)O` (stereo in doubt; 16-2), the values for the Ki in assay [1] and in assay [2] were 1.95 µM and 35 µM, respectively.
